From patent US20170100489A1, “POLYETHYLENE GLYCOL-MODIFIED INTEGRIN BLOCKER HM-3 AND USE THEREOF” (HANMEI XU, priority 2012, published 2017)
Where two headings read alike, the source gives them in different places. Where a SMILES comes first, the peptide text is derived from it. Where no end group is shown, it is not given here. mPEG‑SC20k = methoxy polyethylene glycol-succinimidyl-carbonate, 20000 Da

Tests used:
[1] = tested on: human pancreatic cancer SW-1990 xenograft tumors; assay: Tumor growth inhibition, SW-1990 xenograft
Experimental: Picked the tumor tissue of vigorous growth and was cut into pieces of about 1.5 mm^3. Under sterile conditions, the tumor tissue was inoculated subcutaneously on the right of nude mice. Tumor diameter was measured with a Vernier caliper. The animals which had tumors with a size of 100-200 mm^3 were randomly divided into groups. The effect of polypeptide on anti-tumor was dynamically observed through the method of measuring tumor diameter. The times of measuring tumor diameter were once 2 days, and meantime, weighed mice. The mice in experimental group were infused polypeptide through tail vein, once 3 days. The mice in the placebo group were injected saline with the same volume.
(§1) a, b respectively represent the length and width. According to the result of measurement, calculate the relative tumor volume. Evaluation of antitumor activity is relative tumor proliferation rate T/C(%). The formula is as follows: T/C(%)^=TRTV/CRTV×100%
TRTV:Treatment group RTV; CRTV: negative control group RTV

[2] = tested on: human thyroid cancer SW-579 xenograft tumors; assay: Tumor growth inhibition, SW-579 xenograft; details: for Final weight / Rate of inhibiting tumors / Tumor weight: Once 1 day
Experimental: (§2) Picked the tumor tissue of vigorous growth and was cut into pieces of about 1.5 mm^3. Under sterile conditions, the tumor tissue was inoculated subcutaneously on the right of nude mice. Tumor diameter was measured with a vernier caliper. The animals which had tumors with a size of 100-200 mm^3 were randomly divided into groups. The effect of polypeptide on anti-tumor was dynamically observed through the method of measuring tumor diameter. The times of measuring tumor diameter were once 2 days, and meantime, weighed mice. The mice in experimental group were infused polypeptide through tail vein, once 3 days. The mice in the placebo group were injected saline with the same volume. Tumor volume formula:
as §1

[3] = tested on: human ovarian cancer SK-OV-3 xenograft tumors; assay: Tumor growth inhibition, SK-OV-3 xenograft
Experimental: Human ovarian cancer SK-OV-3 cell lines in logarithmic growth phase were picked, and made into 5×10^7/ml cell suspension of under sterile conditions, and then 0.1 ml suspension was inoculated subcutaneously at the right armpit of nude mice. Tumor diameter was measured with a vernier caliper. The animals which had tumors with a size of 100-200 mm^3 were randomly divided into groups. The effect of polypeptide on anti-tumor was dynamically observed through the method of measuring tumor diameter. The times of measuring tumor diameter were once 2 days, and meantime, weighed mice. The mice in experimental group were infused polypeptide through tail vein. The mice in the placebo group were injected saline with the same volume, once 1 day; Cisplatin group: 10 mg/kg, once 1 week; Endostar group: 2.5 mg/kg, once 1 day; The groups of high, intermediate and low polypeptide: 6, 3, 1.5 mg/kg, respectively, once 1 day. After administration, all mice were sacrificed. Stripped the tumors and weighed.

[4] = tested on: human nasopharyngeal cancer CNE xenograft tumors; assay: Tumor growth inhibition, CNE xenograft
Experimental: as §2
a, b respectively represent the length and width. According to the result of measurement, calculate the relative tumor volume. Evaluation of antitumor activity is relative tumor proliferation rate T/C(%). The formula is as follows: T/C(%)^−TRTV/CRTV×100%

[5] = tested on: human testicular cancer 5637 xenograft tumors; assay: Tumor growth inhibition, 5637 xenograft
Experimental: (§3) Human testicular cancer 5637 cell lines in logarithmic growth phase were picked, and made into 5×10^7/ml cell suspension of under sterile conditions, and then 0.1 ml suspension was inoculated subcutaneously at the right armpit of nude mice. Tumor diameter was measured with a vernier caliper. The animals which had tumors with a size of 100-200 mm^3 were randomly divided into groups. The effect of polypeptide on anti-tumor was dynamically observed through the method of measuring tumor diameter. The times of measuring tumor diameter were once 2 days, and meantime, weighed mice. The mice in experimental group were infused polypeptide through tail vein. […] After administration, all mice were sacrificed. Stripped the tumors and weighed.

[6] = tested on: human prostate cancer DU-145 xenograft tumors; assay: Tumor growth inhibition, DU-145 xenograft
Experimental: Human prostate cancer DU-145 cell lines in logarithmic growth phase were picked, and made into 5×10^7/ml cell suspension of under sterile conditions, and then 0.1 ml suspension was inoculated subcutaneously at the right armpit of nude mice. Tumor diameter was measured with a vernier caliper. The animals which had tumors with a size of 100-200 mm^3 were randomly divided into groups. The effect of polypeptide on anti-tumor was dynamically observed through the method of measuring tumor diameter. The times of measuring tumor diameter were once 2 days, and meantime, weighed mice. The mice in experimental group were infused polypeptide through tail vein. The mice in the placebo group were injected saline with the same volume, once 1 day; Cisplatin group: 10 mg/kg, once 1 week; Endostar group: 2.5 mg/kg, once 1 day; The groups of high, intermediate and low polypeptide: 6, 3, 1.5 mg/kg, respectively, once 1 day. After administration, all mice were sacrificed. Stripped the tumors and weighed.

[7] = tested on: sarcoma HT-1080 xenograft tumors; assay: Tumor growth inhibition, HT-1080 xenograft
Experimental: Tumor diameter was measured with a vernier caliper. […] After administration, all mice were sacrificed. Stripped the tumors and weighed.

[8] = Pharmacokinetics of mPEG-SC20k-HM-3 and HM-3 in rats (plasma concentration by ELISA)
Experimental: SD rats were randomly divided into six groups with the same number for male and female. Take three groups were administered intravenously integrin antagonist polypeptide with a high dose of 52 mg/kg (equivalent to HM-3 4.2 mg/kg), an intermediate dose of 26 mg/kg (equivalent to HM-3 2.1 mg/kg), a low-dose of 13 mg/kg (equivalent to HM-3 1.05 mg/kg). The other 3 groups were injected HM-3 with a high dose of 4.2 mg/kg, an intermediate dose of 2.1 mg/kg, a low doses of 1.05 mg/kg. Collected whole blood 0.5 ml once from the orbital venous plexus after 0.5 h, 1 h, 2 h, 3 h, 6 h, 12 h, 24 h, 48 h, 72 h, 96 h, 108 h, 132 h of drug administration, and applied heparin to get the effect of anti-coagulation. 12000 rpm/2 min centrifuged plasma. Draw supernatant 200 μl and 80° C. preheated PBS (0.05 M pH7.4) buffer 600 μl and mixed. Bath in the 80° C. water for 30 min. Centrifuged 2 min at 12000 rpm, and collected the supernatant, and stored in the condition of −20° C. Dissolved at room temperature, measured integrin antagonist peptide plasma concentration by ELISA.

[9] = tested on: human lung cancer H460 xenograft tumors; assay: Tumor growth inhibition, H460 xenograft
Experimental: as §2, §1
(§4) TRTV: Treatment group RTV; CRTV: negative control group RTV

[10] = tested on: human endometrial cancer HHUA xenograft tumors; assay: Tumor growth inhibition, HHUA xenograft
Experimental: Human endometrial cancer HHUA cell lines in logarithmic growth phase were picked, and made into 5×10^7/ml cell suspension of under sterile conditions, and then 0.1 ml suspension was inoculated subcutaneously at the right armpit of nude mice. Tumor diameter was measured with a vernier caliper. The animals which had tumors with a size of 100-200 mm^3 were randomly divided into groups. The effect of polypeptide on anti-tumor was dynamically observed through the method of measuring tumor diameter. The times of measuring tumor diameter were once 2 days, and meantime, weighed mice. The mice in experimental group were infused polypeptide through tail vein. The mice in the placebo group were injected saline with the same volume, once 1 day; Taxol group: 10 mg/kg, once 1 week; Endostar group: 2.5 mg/kg, once 1 day; The groups of high, intermediate and low polypeptide: 6, 3, 1.5 mg/kg, respectively, once 1 day. After administration, all mice were sacrificed. Stripped the tumors and weighed.

[11] = Immunogenicity assay, antibody titers in serum by ELISA; details: 3.0 mg/kg iv once a day, 8 weeks; FIG. 2
[12] = tested on: human colon cancer HT-29 xenograft tumors; assay: Tumor growth inhibition, HT-29 xenograft
Experimental: Human colon cancer HT-29 cell lines in logarithmic growth phase were picked, and made into 5×10^7/ml cell suspension of under sterile conditions, and then 0.1 ml suspension was inoculated subcutaneously at the right armpit of nude mice. Tumor diameter was measured with a vernier caliper. The animals which had tumors with a size of 100-200 mm^3 were randomly divided into groups. The effect of polypeptide on anti-tumor was dynamically observed through the method of measuring tumor diameter. The times of measuring tumor diameter were once 2 days, and meantime, weighed mice. The mice in experimental group were infused polypeptide through tail vein. The mice in the placebo group were injected saline with the same volume, once 1 day; Taxol group: 10 mg/kg, once 1 week; Endostar group: 2.5 mg/kg, once 1 day; The groups of high, intermediate and low polypeptide: 6, 3, 1.5 mg/kg, respectively, once 1 day. After administration, all mice were sacrificed. Stripped the tumors and weighed.

[13] = tested on: human breast cancer MDA-MB-231 xenograft tumors; assay: Tumor growth inhibition, MDA-MB-231 xenograft
Experimental: Picked the tumor tissue of vigorous growth and was cut into pieces of about 1.5 mm^3. Under sterile conditions, the tumor tissue was inoculated subcutaneously on the right of nude mice. Tumor diameter was measured with a vernier caliper. The animals which had tumors with a size of 100-200 mm^3 were randomly divided into groups. The effect of polypeptide on anti-tumor was dynamically observed through the method of measuring tumor diameter. The times of measuring tumor diameter were once 2 days, and meantime, weighed mice. The mice in experimental group were infused polypeptide through tail vein, once 3 days. The mice in the placebo group were injected saline with the same volume. Tumor volume formula: TV=0.52×a×b^2
as §1, §4

[14] = tested on: human kidney cancer A498 xenograft tumors; assay: Tumor growth inhibition, A498 xenograft
Experimental: Human kidney cancer A498 cell lines in logarithmic growth phase were picked and made into 5×10^7/ml cell suspension of under sterile conditions, and then 0.1 ml suspension was inoculated subcutaneously at the right armpit of nude mice. Tumor diameter was measured with a vernier caliper. The animals which had tumors with a size of 100-200 mm^3 were randomly divided into groups. The effect of polypeptide on anti-tumor was dynamically observed through the method of measuring tumor diameter. The times of measuring tumor diameter were once 2 days, and meantime, weighed mice. The mice in experimental group were infused polypeptide through tail vein. The mice in the placebo group were injected saline with the same volume, once 1 day; Taxol group: 10 mg/kg, once 1 week; Endostar group: 2.5 mg/kg, once 1 day; The groups of high, intermediate and low polypeptide: 6, 3, 1.5 mg/kg, respectively, once 1 day. After administration, all mice were sacrificed. Stripped the tumors and weighed.

[15] = tested on: human cancer 5637 xenograft tumors; assay: Tumor growth inhibition, 5637 xenograft
Experimental: as §3

[16] = tested on: human gastric cancer MGC803 xenograft tumors; assay: Tumor growth inhibition, MGC803 xenograft
Experimental: as §2, §1, §4

[17] = tested on: human gallbladder cancer GBC-SD xenograft tumors; assay: Tumor growth inhibition, GBC-SD xenograft
Experimental: Human gallbladder cancer GBC-SD cell lines in logarithmic growth phase were picked and made into 5×10^7/ml cell suspension of under sterile conditions, and then 0.1 ml suspension was inoculated subcutaneously at the right armpit of nude mice. Tumor diameter was measured with a vernier caliper. The animals which had tumors with a size of 100-200 mm^3 were randomly divided into groups. The effect of polypeptide on anti-tumor was dynamically observed through the method of measuring tumor diameter. The times of measuring tumor diameter were once 2 days, and meantime, weighed mice. The mice in experimental group were infused polypeptide through tail vein. The mice in the placebo group were injected saline with the same volume, once 1 day; Taxol group: 10 mg/kg, once 1 week; Endostar group: 2.5 mg/kg, once 1 day; The groups of high, intermediate and low polypeptide: 6, 3, 1.5 mg/kg, respectively, once 1 day. After administration, all mice were sacrificed. Stripped the tumors and weighed.

[18] = tested on: human cervical cancer HeLa xenograft tumors; assay: Tumor growth inhibition, HeLa xenograft
Experimental: Human cervical cancer HeLa cell lines in logarithmic growth phase were picked, and made into 5×10^7/ml cell suspension of under sterile conditions, and then 0.1 ml suspension was inoculated subcutaneously at the right armpit of nude mice. Tumor diameter was measured with a vernier caliper. The animals which had tumors with a size of 100-200 mm^3 were randomly divided into groups. The effect of polypeptide on anti-tumor was dynamically observed through the method of measuring tumor diameter. The times of measuring tumor diameter were once 2 days, and meantime, weighed mice. The mice in experimental group were infused polypeptide through tail vein. The mice in the placebo group were injected saline with the same volume, once 1 day; Taxol group: 10 mg/kg, once 1 week; Endostar group: 2.5 mg/kg, once 1 day; The groups of high, intermediate and low polypeptide: 6, 3, 1.5 mg/kg, respectively, once 1 day. After administration, all mice were sacrificed. Stripped the tumors and weighed.

[19] = tested on: human bladder cancer HT1376 xenograft tumors; assay: Tumor growth inhibition, HT1376 xenograft
Experimental: Human bladder cancer HT1376 cell lines in logarithmic growth phase were picked, and made into 5×10^7/ml cell suspension of under sterile conditions, and then 0.1 ml suspension was inoculated subcutaneously at the right armpit of nude mice. Tumor diameter was measured with a vernier caliper. The animals which had tumors with a size of 100-200 mm^3 were randomly divided into groups. The effect of polypeptide on anti-tumor was dynamically observed through the method of measuring tumor diameter. The times of measuring tumor diameter were once 2 days, and meantime, weighed mice. The mice in experimental group were infused polypeptide through tail vein. The mice in the placebo group were injected saline with the same volume, once 1 day; Taxol group: 10 mg/kg, once 1 week; Endostar group: 2.5 mg/kg, once 1 day; The groups of high, intermediate and low polypeptide: 6, 3, 1.5 mg/kg, respectively, once 1 day. After administration, all mice were sacrificed. Stripped the tumors and weighed.

[20] = tested on: human esophageal cancer Ec109 xenograft tumors; type: in vivo, nude mice
Experimental: Tumor diameter was measured with a vernier caliper. […] Tumor volume formula: […]
a, b respectively represent the length and width. […] The formula is as follows: […]
TRTV: Treatment Group RTV; CRTV: Negative Control Group RTV

[21] = target: T1, integrin ανβ3 (human, UniProt P06756 31-1048; P05106 27-788); assay: flow cytometry, FITC-labeled peptide on Bel-7402 and MCF-7 cells pre-incubated with function-blocking anti-integrin antibodies
T1 construct: whole, on cells; Endogenous integrin on Bel-7402 and MCF-7 cells; also called alpha v beta 3
T1 sequence (P06756 31-1048, chain 1 of 2): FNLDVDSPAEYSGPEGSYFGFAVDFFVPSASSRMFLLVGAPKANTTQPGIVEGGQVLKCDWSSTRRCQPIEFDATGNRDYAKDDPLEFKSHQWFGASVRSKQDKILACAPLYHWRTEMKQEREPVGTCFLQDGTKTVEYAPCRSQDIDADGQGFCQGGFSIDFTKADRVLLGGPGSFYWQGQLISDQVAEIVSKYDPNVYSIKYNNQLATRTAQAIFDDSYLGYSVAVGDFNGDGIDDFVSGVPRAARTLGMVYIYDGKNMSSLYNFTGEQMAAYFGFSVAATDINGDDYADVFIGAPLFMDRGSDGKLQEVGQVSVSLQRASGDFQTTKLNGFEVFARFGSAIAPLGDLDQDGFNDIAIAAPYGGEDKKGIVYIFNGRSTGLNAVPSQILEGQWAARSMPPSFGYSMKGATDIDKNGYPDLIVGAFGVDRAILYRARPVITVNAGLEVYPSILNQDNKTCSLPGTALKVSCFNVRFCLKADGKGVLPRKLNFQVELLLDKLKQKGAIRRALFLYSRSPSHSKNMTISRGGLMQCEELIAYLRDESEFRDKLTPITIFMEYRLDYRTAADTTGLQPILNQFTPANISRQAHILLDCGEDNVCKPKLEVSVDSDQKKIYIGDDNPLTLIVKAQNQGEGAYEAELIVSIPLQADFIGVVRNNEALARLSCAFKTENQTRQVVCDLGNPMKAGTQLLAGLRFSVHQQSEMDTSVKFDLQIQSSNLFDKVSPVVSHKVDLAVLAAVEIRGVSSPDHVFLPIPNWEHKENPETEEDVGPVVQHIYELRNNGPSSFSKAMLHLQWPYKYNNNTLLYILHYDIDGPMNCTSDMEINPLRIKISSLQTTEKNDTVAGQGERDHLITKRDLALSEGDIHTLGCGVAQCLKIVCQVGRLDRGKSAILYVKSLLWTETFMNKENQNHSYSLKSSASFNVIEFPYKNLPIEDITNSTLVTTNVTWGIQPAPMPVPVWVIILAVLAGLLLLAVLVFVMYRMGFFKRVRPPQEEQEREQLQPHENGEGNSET
T1 sequence (P05106 27-788, chain 2 of 2): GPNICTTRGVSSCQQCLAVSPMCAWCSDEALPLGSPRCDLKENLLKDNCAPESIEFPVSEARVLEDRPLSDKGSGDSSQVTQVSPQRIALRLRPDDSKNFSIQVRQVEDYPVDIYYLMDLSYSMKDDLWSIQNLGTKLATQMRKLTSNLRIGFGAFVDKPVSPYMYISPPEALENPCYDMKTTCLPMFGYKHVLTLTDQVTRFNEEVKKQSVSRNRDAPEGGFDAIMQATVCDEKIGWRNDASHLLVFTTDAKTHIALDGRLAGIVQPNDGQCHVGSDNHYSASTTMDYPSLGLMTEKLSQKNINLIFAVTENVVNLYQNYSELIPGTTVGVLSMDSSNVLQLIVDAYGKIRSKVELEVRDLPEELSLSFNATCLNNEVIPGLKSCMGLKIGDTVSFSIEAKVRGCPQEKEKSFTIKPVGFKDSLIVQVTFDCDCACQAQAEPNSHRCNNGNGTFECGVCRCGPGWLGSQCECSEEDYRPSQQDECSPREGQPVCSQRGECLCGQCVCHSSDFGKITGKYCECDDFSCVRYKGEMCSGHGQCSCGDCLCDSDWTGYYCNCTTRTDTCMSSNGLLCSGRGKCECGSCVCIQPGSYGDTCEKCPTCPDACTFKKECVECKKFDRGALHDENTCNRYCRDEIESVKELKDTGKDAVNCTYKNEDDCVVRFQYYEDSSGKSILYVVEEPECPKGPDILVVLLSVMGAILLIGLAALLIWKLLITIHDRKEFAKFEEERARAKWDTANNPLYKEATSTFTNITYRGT

[22] = target: T2, integrin α5β1 (human, UniProt P08648 42-1049; P05556 21-798); assay: as above
T2 construct: whole, on cells; Endogenous integrin on Bel-7402 and MCF-7 cells; also called alpha 5 beta 1
T2 sequence (P08648 42-1049, chain 1 of 2): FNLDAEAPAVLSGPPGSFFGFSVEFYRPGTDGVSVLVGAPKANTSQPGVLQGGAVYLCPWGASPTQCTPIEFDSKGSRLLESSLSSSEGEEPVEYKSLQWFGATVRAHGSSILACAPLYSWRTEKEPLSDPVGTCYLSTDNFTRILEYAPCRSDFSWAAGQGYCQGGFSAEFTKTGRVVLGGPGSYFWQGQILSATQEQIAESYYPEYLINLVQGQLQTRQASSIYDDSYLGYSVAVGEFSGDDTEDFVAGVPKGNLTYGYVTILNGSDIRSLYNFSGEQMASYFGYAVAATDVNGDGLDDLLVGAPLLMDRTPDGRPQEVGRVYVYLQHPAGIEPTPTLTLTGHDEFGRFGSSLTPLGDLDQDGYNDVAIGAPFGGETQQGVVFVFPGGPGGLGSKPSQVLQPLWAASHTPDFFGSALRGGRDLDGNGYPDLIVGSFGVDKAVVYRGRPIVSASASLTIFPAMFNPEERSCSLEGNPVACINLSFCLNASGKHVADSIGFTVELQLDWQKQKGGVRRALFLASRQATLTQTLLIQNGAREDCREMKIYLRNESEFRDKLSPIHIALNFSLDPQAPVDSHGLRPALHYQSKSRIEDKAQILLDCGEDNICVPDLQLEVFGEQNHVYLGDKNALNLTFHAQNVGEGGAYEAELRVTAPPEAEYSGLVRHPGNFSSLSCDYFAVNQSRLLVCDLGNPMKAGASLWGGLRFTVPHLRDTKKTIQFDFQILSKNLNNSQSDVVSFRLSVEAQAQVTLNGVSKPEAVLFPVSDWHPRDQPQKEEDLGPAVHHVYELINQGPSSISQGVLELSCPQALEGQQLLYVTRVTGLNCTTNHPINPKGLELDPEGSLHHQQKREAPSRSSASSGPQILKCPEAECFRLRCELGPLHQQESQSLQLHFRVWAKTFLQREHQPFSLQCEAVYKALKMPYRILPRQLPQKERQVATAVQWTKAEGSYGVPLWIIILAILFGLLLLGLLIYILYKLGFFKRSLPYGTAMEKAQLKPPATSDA
T2 sequence (P05556 21-798, chain 2 of 2): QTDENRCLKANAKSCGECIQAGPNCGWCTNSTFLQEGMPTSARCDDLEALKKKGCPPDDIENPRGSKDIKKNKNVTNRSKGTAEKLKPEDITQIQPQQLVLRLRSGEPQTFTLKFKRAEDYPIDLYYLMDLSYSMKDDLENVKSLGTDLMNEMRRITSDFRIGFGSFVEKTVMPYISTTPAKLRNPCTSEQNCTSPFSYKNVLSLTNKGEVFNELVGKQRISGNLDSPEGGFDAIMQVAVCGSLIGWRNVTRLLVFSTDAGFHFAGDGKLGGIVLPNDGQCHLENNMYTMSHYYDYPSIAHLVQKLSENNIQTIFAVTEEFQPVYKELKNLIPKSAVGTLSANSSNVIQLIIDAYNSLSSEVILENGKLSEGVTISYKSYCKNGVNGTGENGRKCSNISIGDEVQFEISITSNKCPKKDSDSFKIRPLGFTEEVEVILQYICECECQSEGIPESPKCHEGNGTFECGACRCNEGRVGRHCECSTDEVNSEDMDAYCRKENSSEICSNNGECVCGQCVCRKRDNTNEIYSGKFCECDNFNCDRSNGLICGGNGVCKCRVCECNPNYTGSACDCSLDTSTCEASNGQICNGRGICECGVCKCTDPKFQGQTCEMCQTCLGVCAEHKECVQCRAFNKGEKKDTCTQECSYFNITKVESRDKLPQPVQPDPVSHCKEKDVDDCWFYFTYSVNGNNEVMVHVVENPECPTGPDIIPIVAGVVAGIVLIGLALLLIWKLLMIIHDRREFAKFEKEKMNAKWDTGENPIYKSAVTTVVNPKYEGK

Molecule: O=c1[nH]cc(F)c(=O)[nH]1 [5-Fu, reference compound]
- Final weight ([1]; 10 mg/kg, Once 1 day): 22.43 g
- Rate of inhibiting tumors ([1]; 10 mg/kg, Once 1 day): 76.68%
- Tumor weight ([1]; 10 mg/kg, Once 1 day): 0.323 g
- toxicity in experimental animals ([2]; 10 mg/kg): greater toxicity and leads to the weight loss and death
- Final weight ([2]; 10 mg/kg): 21.32 g
- Rate of inhibiting tumors ([2]; 10 mg/kg): 74.50%
- Tumor weight ([2]; 10 mg/kg): 0.320 g

Molecule: N.N.[Cl][Pt][Cl] [Cisplatin, reference compound]
- Final weight ([3]; 10 mg/kg, Twice 1 week): 22.19 g
- Rate of inhibiting tumors ([3]; 10 mg/kg, Twice 1 week): 76.13%
- Tumor weight ([3]; 10 mg/kg, Twice 1 week): 0.302 g
- influence on the weight of experimental animals ([4]; 10 mg/kg): significantly affects the weight
- Final weight ([4]; 10 mg/kg, Twice 1 week): 22.33 g
- Rate of inhibiting tumors ([4]; 10 mg/kg, Twice 1 week): 73.36%
- Tumor weight ([4]; 10 mg/kg, Twice 1 week): 0.320 g
- Rate of inhibiting tumors ([5]; 10 mg/kg, Twice 1 week): 70.74%
- Rate of inhibiting tumors ([6]; 10 mg/kg, Twice a week): 70.60%

Molecule: O=P1(N(CCCl)CCCl)NCCCO1 (stereo not drawn) [Cyclophosphamide]
- Final weight ([7]; 15 mg/kg, Once 2 days): 23.85 g
- Rate of inhibiting tumors ([7]; 15 mg/kg, Once 2 days): 74.15%
- Tumor weight ([7]; 15 mg/kg, Once 2 days): 0.501 g

Molecule: CC[C@H](C)[C@H](N)C(=O)N[C@H](C(=O)N[C@@H](CCCNC(=N)N)C(=O)N[C@@H](CCCNC(=N)N)C(=O)N[C@@H](C)C(=O)N[C@@H](CC(=O)O)C(=O)N[C@@H](CCCNC(=N)N)C(=O)N[C@@H](C)C(=O)N[C@@H](C)C(=O)N[C@H](C(=O)N1CCC[C@H]1C(=O)NCC(=O)NCC(=O)NCC(=O)NCC(=O)N[C@@H](CCCNC(=N)N)C(=O)NCC(=O)N[C@@H](CC(=O)O)C(=O)O)C(C)C)C(C)C [HM-3, Ile-Val-Arg-Arg-Ala-Asp-Arg-Ala-Ala-Val-Pro-Gly-Gly-Gly-Gly-Arg-Gly-Asp] (H-IVRRADRAAVPGGGGRGD-OH; N-terminus assumed)
- AUC0-∞ ([8]; SD rats, intravenous): 25.63 mg/L/h
- t1/2p ([8]; SD rats, intravenous): 27.66 min
- t1/2β ([8]; SD rats, intravenous): 27.6 min
- clearance ([8]; both, SD, rat, plasma, iv): 23 mL/min/kg
- half-life ([8]; both, SD, rat, plasma, iv): 27.6 min
- MRT inf ([8]; both, SD, rat, plasma, iv, MRT0-∞, SD rats): 2.16 min
- Final weight ([9]; 1.5 mg/kg, Once 3 days): 21.11 g
- Rate of inhibiting tumors ([9]; 1.5 mg/kg, Once 3 days): 65.42%
- Tumor weight ([9]; 1.5 mg/kg, Once 3 days): 0.274 g
- Final weight ([10]; 1.5 mg/kg, Once 3 days): 22.85 g
- Rate of inhibiting tumors ([10]; 1.5 mg/kg, Once 3 days): 54.49%
- Tumor weight ([10]; 1.5 mg/kg, Once 3 days): 0.550 g
- time of administration at which antibody appeared [11]: third week
- Rate of inhibiting tumors ([3]; 1.5 mg/kg, Once 3 days): 49.49%
- Tumor weight ([3]; 1.5 mg/kg, Once 3 days): 0.639 g
- Final weight ([12]; 1.5 mg/kg, Once 3 days): 23.15 g
- Rate of inhibiting tumors ([12]; 1.5 mg/kg, Once 3 days): 52.59%
- Tumor weight ([12]; 1.5 mg/kg, Once 3 days): 0.531 g
- Final weight ([1]; 1.5 mg/kg, Once 3 days): 23.10 g
- Rate of inhibiting tumors ([1]; 1.5 mg/kg, Once 3 days): 57.94%
- Tumor weight ([1]; 1.5 mg/kg, Once 3 days): 0.582 g
- Final weight ([4]; 1.5 mg/kg, Once 3 days): 22.85 g
- Rate of inhibiting tumors ([4]; 1.5 mg/kg, Once 3 days): 61.03%
- Tumor weight ([4]; 1.5 mg/kg, Once 3 days): 0.468 g
- Final weight ([13]; 1.5 mg/kg, Once 3 days): 23.54 g
- Rate of inhibiting tumors ([13]; 1.5 mg/kg, Once 3 days): 57.14%
- Tumor weight ([13]; 1.5 mg/kg, Once 3 days): 0.533 g
- Final weight ([2]; 1.5 mg/kg): 22.70 g
- Rate of inhibiting tumors ([2]; 1.5 mg/kg): 57.70%
- Tumor weight ([2]; 1.5 mg/kg): 0.530 g
- Final weight ([14]; 1.5 mg/kg, Once 3 days): 20.88 g
- Rate of inhibiting tumors ([14]; 1.5 mg/kg, Once 3 days): 54.77%
- Tumor weight ([14]; 1.5 mg/kg, Once 3 days): 0.427 g
- Rate of inhibiting tumors ([5]; 1.5 mg/kg, Once 3 days): 59.40%
- Tumor weight ([5]; 1.5 mg/kg, Once 3 days): 0.82 g
- Final weight ([15]; 1.5 mg/kg, Once 3 days): 25.15 g
- Final weight ([16]; 1.5 mg/kg, Once 3 days): 22.37 g
- Rate of inhibiting tumors ([16]; 1.5 mg/kg, Once 3 days): 70.40%
- Tumor weight ([16]; 1.5 mg/kg, Once 3 days): 0.214 g
- Final weight ([17]; 1.5 mg/kg, Once 3 days): 20.92 g
- Rate of inhibiting tumors ([17]; 1.5 mg/kg, Once 3 days): 57.59%
- Tumor weight ([17]; 1.5 mg/kg, Once 3 days): 0.450 g
- Final weight ([18]; 1.5 mg/kg, Once 3 days): 23.86 g
- Rate of inhibiting tumors ([18]; 1.5 mg/kg, Once 3 days): 57.25%
- Tumor weight ([18]; 1.5 mg/kg, Once 3 days): 0.528 g
- Final weight ([6]; 1.5 mg/kg, Once 3 days): 23.64 g
- Rate of inhibiting tumors ([6]; 1.5 mg/kg, Once 3 days): 56.36%
- Tumor weight ([6]; 1.5 mg/kg, Once 3 days): 0.809 g
- Final weight ([19]; 1.5 mg/kg, Once 3 days): 22.30 g
- Rate of inhibiting tumors ([19]; 1.5 mg/kg, Once 3 days): 50.49%
- Tumor weight ([19]; 1.5 mg/kg, Once 3 days): 0.504 g
- Rate of inhibiting tumors ([7]; 1.5 mg/kg, Once 3 days): 59.24%
- Tumor weight ([7]; 1.5 mg/kg, Once 3 days): 0.790 g
- Rate of inhibiting tumors ([20]; 1.5 mg/kg, Once 3 days): 60.57%
- Tumor weight ([20]; 1.5 mg/kg, Once 3 days): 0.365 g

Molecule: CC(=O)O[C@H]1C(=O)[C@@]2(C)[C@H]([C@H](OC(=O)c3ccccc3)[C@]3(O)C[C@H](OC(=O)[C@H](O)[C@@H](NC(=O)c4ccccc4)c4ccccc4)C(C)=C1C3(C)C)[C@]1(OC(C)=O)CO[C@@H]1C[C@@H]2O [Taxol, reference compound]
- Final weight ([9]; 10 mg/kg, Once 2 days): 19.58 g
- Rate of inhibiting tumors ([9]; 10 mg/kg, Once 2 days): 68.77%
- Tumor weight ([9]; 10 mg/kg, Once 2 days): 0.248 g
- Final weight ([10]; 10 mg/kg, Twicw 1 week): 22.19 g
- Rate of inhibiting tumors ([10]; 10 mg/kg, Twicw 1 week): 75.55%
- Tumor weight ([10]; 10 mg/kg, Twicw 1 week): 0.295 g
- Final weight ([12]; 10 mg/kg, Once 2 days): 22.84 g
- Rate of inhibiting tumors ([12]; 10 mg/kg, Once 2 days): 69.11%
- Tumor weight ([12]; 10 mg/kg, Once 2 days): 0.346 g
- Final weight ([13]; 10 mg/kg, Once 2 days): 23.32 g
- Rate of inhibiting tumors ([13]; 10 mg/kg, Once 2 days): 73.05%
- Tumor weight ([13]; 10 mg/kg, Once 2 days): 0.335 g
- Final weight ([14]; 10 mg/kg, Once 2 days): 21.15 g
- Rate of inhibiting tumors ([14]; 10 mg/kg, Once 2 days): 74.32%
- Tumor weight ([14]; 10 mg/kg, Once 2 days): 0.242 g
- Rate of inhibiting tumors ([5]; 10 mg/kg, Twice 1 week): 70.74%
- Tumor weight ([5]; 10 mg/kg, Twice 1 week): 0.590 g
- Final weight ([15]; 10 mg/kg, Twice 1 week): 24.46 g
- Final weight ([16]; 10 mg/kg, Once 2 days): 22.05 g
- Rate of inhibiting tumors ([16]; 10 mg/kg, Once 2 days): 74.12%
- Tumor weight ([16]; 10 mg/kg, Once 2 days): 0.187 g
- Final weight ([17]; 10 mg/kg, Once 2 days): 20.43 g
- Rate of inhibiting tumors ([17]; 10 mg/kg, Once 2 days): 78.13%
- Tumor weight ([17]; 10 mg/kg, Once 2 days): 0.232 g
- Final weight ([18]; 10 mg/kg, Once 2 days): 23.47 g
- Rate of inhibiting tumors ([18]; 10 mg/kg, Once 2 days): 65.37%
- Tumor weight ([18]; 10 mg/kg, Once 2 days): 0.428 g
- Final weight ([6]; 10 mg/kg, Twice a week): 23.81 g
- Rate of inhibiting tumors ([6]; 10 mg/kg, Twice a week): 70.60%
- Tumor weight ([6]; 10 mg/kg, Twice a week): 0.545 g
- Final weight ([19]; 10 mg/kg, Once 2 days): 21.65 g
- Rate of inhibiting tumors ([19]; 10 mg/kg, Once 2 days): 67.88%
- Tumor weight ([19]; 10 mg/kg, Once 2 days): 0.327 g
- Rate of inhibiting tumors ([20]; 10 mg/kg, Once 2 days): 70.19%
- Tumor weight ([20]; 10 mg/kg, Once 2 days): 0.276 g

B1: mPEG-SC20k-Ile-Val-Arg-Arg-Ala-Asp-Arg-Ala-Ala-Val-Pro-Gly-Gly-Gly-Gly-Arg-Gly-Asp (mPEG-SC20k-HM-3) (peptide)
peptide: {mPEG‑SC20k}-IVRRADRAAVPGGGGRGD
modifications: also: FITC labeled, site not given here
notes: also called integrin antagonist polypeptide
- binding result [21]: binds
- binding result [22]: binds
